Assay results from PubChem BioAssay AID2060626 (Molecular Pharmacology Branch, DTP, NCI, 2025).
Several values for one entry are separate records, joined by “and”; a condition that tells them apart may be missing. Identical values can stand only once.

System: 168753-222-R-J1-PDC complex spheroid viability
Test: Anticancer human tumor 168753-222-R-J1-PDC patient-derived bladder carcinoma cell line growth inhibition [CLK]
Details: for viability, T/C: stronger effect = lower value
In short: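 Multi-cell-type spheroids combined patient-derived tumor cells with HUVEC endothelial cells and human mesenchymal stem cells. Paired agents were dosed in half-log steps down from about clinical Cmax, or from 10 microM where Cmax was unknown.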
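Also: viability measured after seven days of drug exposure.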
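For viability, T/C in this document: luminescence signal used as surrogate for viable cell amount; 100% = DMSO vehicle control wells.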

CC1(C)CCC(CN2CCN(c3ccc(C(=O)NS(=O)(=O)c4ccc(NCC5CCOCC5)c([N+](=O)[O-])c4)c(Oc4cnc5[nH]ccc5c4)c3)CC2)=C(c2ccc(Cl)cc2)C1 + CNC(=O)c1ccc(Nc2nc(OC3CCCC3)c3c(-c4ccc5nc(C)oc5c4)c[nH]c3n2)c(OC)c1
IC50 (curve of first compound, second compound 0.0316 µM): 6.52 µM | IC50 (curve of first compound, second compound 0.1 µM): 5.81 µM | IC50 (curve of first compound, second compound 0.316 µM): 4.58 µM | IC50 (curve of first compound, second compound 1 µM): 0.0458 µM | IC50 (curve of first compound, second compound 3.16 µM): < 0.0316 µM | IC50 (curve of first compound, second compound 10 µM): < 0.0316 µM | viability, T/C (second compound 0.0316 µM, first compound 0.0316 µM): 109% | viability, T/C (second compound 0.0316 µM, first compound 0.1 µM): 112% | viability, T/C (second compound 0.0316 µM, first compound 0.316 µM): 104% | viability, T/C (second compound 0.0316 µM, first compound 1 µM): 109% | viability, T/C (second compound 0.0316 µM, first compound 3.16 µM): 97% | viability, T/C (second compound 0.0316 µM, first compound 10 µM): 22% | viability, T/C (second compound 0.1 µM, first compound 0.0316 µM): 99.7% | viability, T/C (second compound 0.1 µM, first compound 0.1 µM): 99.5% | viability, T/C (second compound 0.1 µM, first compound 0.316 µM): 101% | viability, T/C (second compound 0.1 µM, first compound 1 µM): 95.7% | viability, T/C (second compound 0.1 µM, first compound 3.16 µM): 90.2% | viability, T/C (second compound 0.1 µM, first compound 10 µM): 14% | viability, T/C (second compound 0.316 µM, first compound 0.0316 µM): 75.2% | viability, T/C (second compound 0.316 µM, first compound 0.1 µM): 77% | viability, T/C (second compound 0.316 µM, first compound 0.316 µM): 79.6% | viability, T/C (second compound 0.316 µM, first compound 1 µM): 80.3% | viability, T/C (second compound 0.316 µM, first compound 3.16 µM): 66.7% | viability, T/C (second compound 0.316 µM, first compound 10 µM): 12.6% | viability, T/C (second compound 1 µM, first compound 0.0316 µM): 50.4% | viability, T/C (second compound 1 µM, first compound 0.1 µM): 49.5% | viability, T/C (second compound 1 µM, first compound 0.316 µM): 38.4% | viability, T/C (second compound 1 µM, first compound 1 µM): 25.9% | viability, T/C (second compound 1 µM, first compound 3.16 µM): 27.2% | viability, T/C (second compound 1 µM, first compound 10 µM): 13.8% | viability, T/C (second compound 3.16 µM, first compound 0.0316 µM): 23.3% | viability, T/C (second compound 3.16 µM, first compound 0.1 µM): 23.1% | viability, T/C (second compound 3.16 µM, first compound 0.316 µM): 19.5% | viability, T/C (second compound 3.16 µM, first compound 1 µM): 20% | viability, T/C (second compound 3.16 µM, first compound 3.16 µM): 17.6% | viability, T/C (second compound 3.16 µM, first compound 10 µM): 23.9% | viability, T/C (second compound 10 µM, first compound 0.0316 µM): 18.1% | viability, T/C (second compound 10 µM, first compound 0.1 µM): 17.3% | viability, T/C (second compound 10 µM, first compound 0.316 µM): 17.6% | viability, T/C (second compound 10 µM, first compound 1 µM): 17.3% | viability, T/C (second compound 10 µM, first compound 3.16 µM): 15.8% | viability, T/C (second compound 10 µM, first compound 10 µM): 20.4%

C#Cc1c(F)ccc2cc(O)cc(-c3ncc4c(N5CC6CCC(C5)N6)nc(OCC56CCCN5CC(F)C6)nc4c3F)c12 (centres undefined)
viability, T/C (compound 0.0316 µM): 107% and 94.2% | viability, T/C (compound 0.1 µM): 103% and 96.3% | viability, T/C (compound 0.316 µM): 99.5% and 107% | viability, T/C (compound 1 µM): 103% and 97.3% | viability, T/C (compound 3.16 µM): 89.2% and 66.9% | viability, T/C (compound 10 µM): 80.6% and 52.9% | IC50 (curve of compound): > 10 µM
